These results are taken from patent US20180201594A1, “Compound pac-1 or salt thereof and pharmaceutical composition comprising same” (priority 2015, published 2018).

Structures are written as SMILES. Values after ≈ are worked out from the molar mass of the structure shown.

Data set [1] is described as follows: In vivo pharmacokinetic comparison in rats. To be noted: male Wistar rats, 60 mg/Kg, n = 6. As for the experimental part:
Twelve male Wistar rats were randomly divided into ZYS-1 group and PAC-1 group. These rats were fasted for 12 hours before administration, and fed water freely. After ZYS-1 and PAC-1 needle crystal were given at the dose of 60 mg/Kg, 0.5 mL orbital blood was collected at 0, 5, 20, 30, 45, 60, 120, 180, 240, 360, 480, 720 mins, centrifuged at 5000 r/min for 5 min. 200 μL plasma was taken. The plasma was added 3 mL acetone and vortexed for 1 min. After centrifuging at 15000 r/min for 5 min, the supernatant was collected and dried under nitrogen at 37° C., to which 200 μL acetonitrile was added to be reconstituted. After sonication for 10 min, the mixture was vortexed for 1 min, and filtered through 0.45 microporous filter membrane. The filtrate was tested by HPLC, and the plasma concentration at each time point was calculated.

The test system of a further data set is ICR mice. As to the kind of experiment: in vivo. An excerpt: (§1) Experimental materials: PAC-1 needle crystal (prepared according to the method of Quinn P. Peterson et al., J. Med. Chem. 2009, 52, 5721-5731), batch number 20090818.
(§2) Experimental animals and feeding conditions: ICR mice, half male and half female. Body weight 20±2 g, provided by Beijing Weitonglihua Experimental Animal Technology Co., Ltd., SPF grade feeding, certificate: SCXK (Beijing) 2006-0009. Particulate feed for mouse breeding was provided by Beijing Ke'ao Xieli Feed Co., Ltd. Animals were housed in barrier-level (Grade 2) animal lab in Beijing Anzhen Hospital, fluorescent lighting, 12 h light and dark cycle, room ? temperature 22˜24 ? , humidity 40-47%, air supply 10-12 times/h, Laboratory license number: SYXK (Beijing) 2005-0028. Mice were housed in clear plastic boxes with 5 per cage separated by gender.
(§3) The method of preparing the test drug: PAC-1 needle crystal was placed in a mortar to be finely ground. A propriate amount of PAC-1 crystal was accurately weighed, which was formulated with 0.5% CMC-Na to reach the desired concentration.
(§4) Animals grouping: After fasting (except for water) for 11 h, according to body weight, animals were randomly divided into groups of 10 with 5 males and 5 females. There were 8 groups in total. […]. One-time intragastric administration was used in the experiment. The negative control group was orally administered an equal volume of 0.5% CMC-Na. The animals started feeding at 3 hours after administration.
(§5) Observed indicators: immediately after administration, the observation of the responses of the animals to drugs (such as: general performance, respiration, activity, with or without convulsions, righting reflex, pain reflex, response to external stimuli and other indicators) was started. When observing and recording the symptom of toxic reaction after animal administration, the time and duration of toxicity, recovery time, and the time of animal death, the animal was immediately dissected grossly, visually observing the main organs (heart, liver, spleen, lung and kidney, stomach) to see if there is congestion, increased volume, hardens, discoloration. For survival animals, they were observed and recorded day by day whether there was delayed death and delayed toxicity reaction in 7 days. The animals were weighed and fed once every 2 days. After finishing observation for 7 days, the survival animals were dissected grossly and the situations of their main organs were observed. […]

The next data set in a line: in vivo. The following applies: both sexes, ICR, mouse, in vivo, po.
Description: as §1, §2, §3, §4, §5

Data set [2] is described as follows: Solubility comparison of ZYS-1 and PAC-1 needle crystal (HPLC). It is filed as physicochemical. To be noted: room temperature.
Test in data set [3]: as above
The class given is physicochemical. To be noted: organic solvent or mixture, thermodynamic from solid, room temperature. The protocol: The appropriate amounts of ZYS-1 and PAC-1 needle crystal were dissolved into the appropriate amount of methanol, absolute ethanol, 95% ethanol, acetonitrile, ethyl ether, ethyl acetate, propanol, acetone, respectively, and sonicated for 1 hour, then left at room temperature for 24 hours to obtain the oversaturated solution. After centrifugation at 4000 r/min for 5 min, the supernatant was diluted appropriately and filtered through a 0.45 μm needle filter. The concentration was determined by HPLC and the solubility was calculated.

The test system of data set [4] is Murine Lewis lung carcinoma cell line. Description: Spontaneous metastatic cancer in mice (Lewis lung carcinoma). The following applies: 100 mg/kg/d, intragastric administration. The protocol:
The tumors growed to 1000 mm^3 and then were randomly divided into groups for adminstration, the groups were treated after three weeks. A total of 4 groups including ZYS-1 high, medium and low (100, 50, 25 mg/kg/d, intragastric administration) and positive control (gefitinib 100 mg/kg/d, intragastric administration) groups were set. The efficacy of ZYS-1 was evaluated in terms of general survival status (food intake, activity, hair etc.), tumor inhibition rate and metastasis inhibition rate.
The curve of tumor growth was plotted. On the next day after completing the treatment cycle, the animal was weighed. After collecting the blood, the animal was sacrificed. The tumor tissue was stripped, weighed, and the tumor inhibition rate was calculated. Store at −80 ? .
Metastasis rate=Number of mice with metastasis/Total number of mice×100%
Inhibition rate of metastasis loci=(average number of metastasis loci in the control group−average number of metastasis loci in the experimental group)/average number of metastasis loci in the control group×100%

[5] abbreviates: both, ICR, mouse, in vivo, 7 days.
Where [6] appears, read: one-time intragastric administration to mice.

As to `C=CCc1cccc(/C=N/NC(=O)CN2CCN(Cc3ccccc3)CC2)c1O` [PAC-1 needle crystal, 1-Piperazineacetic acid, 4-(phenylmethyl)-2-[[2-hydroxy-3-(2-propen-1-yl)phenyl]methylene], reference compound], in data set [1], the “AUC(0-tn)” value amounted to 320.2186357 ± 127.0767162 µg·h/mL, the “AUC(0-∞)” value was 578.8993071 ± 466.830172 µg·h/mL, the Cmax was 2078.7579 ± 950.561 ng/mL and the “MRT(0-tn)” value amounted to 254.3166 ± 180.2413 h. In data set [1], the “MRT(0-∞)” value is 1501.7189 ± 1808.4213 h, the time to peak (Tmax) was found to be 52.5000 ± 12.5499 h, the T½ka came out at 15.4260 ± 11.8916 h and the T½α was 134.7563 ± 63.3796 h. Besides, in data set [1], the V/F is 0.0318 ± 0.0177 L, the ka was found to be 0.0720 ± 0.0468 h⁻¹, the ke turned out to be 0.0062 ± 0.0029 h⁻¹ and the lagtime is reported as 8.8081 ± 4.8496 h. In the data set on ICR mice (setting [5]), the 0% mortality dose is 240.1 mg/kg, the 100% mortality dose result is on record as “greater than 1000 mg/kg” and the “dose without apparent toxicity” value was 117.7 mg/kg. In addition, in the data set with ICR mice (setting [6]), the “time for most survival animals to return to normal after dosing” value was not above 3 h and the “time of death after administration (mainly)” value is reported as 30˜60 min. For the same compound, the LD50 at 7 days in the data set “in vivo” (LD50 95% confidence limit) is 451 to 675 mg/kg. This compound also returned an LD50 at 7 days in “in vivo” (acute toxicity (LD50) dose) of 552 mg/kg. For the same compound, the Solubility in data set [2] (Water) is 0.0015 mg/mL (≈ 0.00382 mM). Moreover, the solubility at 24 h in data set [2] (chloroform, organic solvent or mixture, thermodynamic from solid) is 290 mg/mL (≈ 740 mM). The solubility at 24 h in data set [3] (95% ethanol) was 16.4 mg/mL (≈ 41.9 mM). In data set [3] (absolute ethanol), the solubility at 24 h is 18.9 mg/mL (≈ 48.3 mM). Besides, in data set [3] (acetone), the solubility at 24 h was 81.8 mg/mL (≈ 208 mM). The solubility at 24 h in data set [3] (acetonitrile) worked out at 20.7 mg/mL (≈ 52.8 mM). Moreover, the solubility at 24 h in data set [3] (diethyl ether) amounted to 3.51 mg/mL (≈ 8.94 mM). In addition, the solubility at 24 h in data set [3] (ethyl acetate) is 33.4 mg/mL (≈ 85 mM). Further, the solubility at 24 h in data set [3] (methanol) came to 28.2 mg/mL (≈ 71.8 mM). In addition, the solubility at 24 h in data set [3] (propanol) stood at 16 mg/mL (≈ 40.9 mM).
`COc1cc2ncnc(Nc3ccc(F)c(Cl)c3)c2cc1OCCCN1CCOCC1` [Gefitinib, gefitinib, reference compound]: in data set [4], the “Body weight of the animals, End” value turned out to be 30.5 ± 5.0 g; the Metastasis rate is recorded as 100%; the “Number of lung (metastasis loci)” value was 6.9 ± 3.7; the Tumor weight is 2.1036 ± 0.3382 g.
